{"source": "patent US20170246111A1", "about": "“ACTIVE-LOADED PARTICULATE MATERIALS FOR TOPICAL ADMINISTRATION” (PHARMASOL GMBH, priority 2014, published 2017)", "key": {"[1]": {"settings": "40 min", "method": "35.0% azithromycin physical mixture was as well dispersed in Milli-Q® water to get a final concentration of azithromycin of 5.6% in vials. Furthermore, 5.6% coarse drug powder was suspended in Milli-Q® water for comparison. The samples were stored at 25° C. shaking with 100 rpm in an Innova® 4230 shaker for 40 minutes. To separate the dissolved drug, the samples were first centrifuged (17,968×g; 10 minutes) and subsequently the supernatant was filtered (50 nm pore size, Whatman® 110603 filter). The drug concentration in such obtained sample was determined by HPLC."}, "[2]": {"settings": "at 25° C. in water, Mauludin PhD thesis 2008; cited from earlier work"}}}
{"compound": "CC[C@H]1OC(=O)[C@H](C)[C@@H](O[C@H]2C[C@@](C)(OC)[C@@H](O)[C@H](C)O2)[C@H](C)[C@@H](O[C@@H]2O[C@H](C)C[C@H](N(C)C)[C@H]2O)[C@](C)(O)C[C@@H](C)CN(C)[C@H](C)[C@@H](O)[C@]1(C)O", "note": "[azithromycin raw drug powder, azithromycin]", "values": [{"measurement": "saturation solubility in water", "setting": "[1]", "result": 93, "unit": "µg/mL"}]}
{"compound": "COc1ccc([C@@H]2CC(=O)c3c(O)cc(O[C@@H]4O[C@H](CO[C@@H]5O[C@@H](C)[C@H](O)[C@@H](O)[C@H]5O)[C@@H](O)[C@H](O)[C@H]4O)cc3O2)cc1O", "note": "[hesperidin raw powder, hesperidin]", "values": [{"measurement": "saturation solubility Cs", "setting": "[2]", "result": "about 20 μg/ml"}]}
